Measured values from patent publication US20200038513A1, “MODULATORS OF FAK PROTEOLYSIS AND ASSOCIATED METHODS OF USE” (ARVINAS OPERATIONS, INC., priority 2018, published 2020).
Read-outs that look alike come from different tables or passages of the source.

Legend:
[1] = Pharmacokinetics of intraperitoneal or intravenous injection in CD1 mice; assay type: in vivo; conditions: for concentration at 0.25 h / concentration at 0.5 h / concentration at 1 h / concentration at 2 h / concentration at 4 h / concentration at 8 h / concentration at 24 h / AUC(0-t) / half-life / concentration at 0.033 h / concentration at 0.083 h: male, CD1, mouse, plasma
Procedure, shortened: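 Male CD1 mice, 6-8 weeks old, 3 per group, dosed IV (5 s injection; 10% HP-b-CD, 40 mM sodium acetate, 40 mM NaCl, pH 4.5) or IP (5% EtOH, 5% Solutol HS15 in D5W). Serial dorsal metatarsal vein blood, terminal heart puncture; plasma analysed by LC/MS/MS after acetonitrile precipitation, calibration 1-2000 ng/mL.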

PPB = assay type: in vitro ADME; conditions: plasma
[2] = IV 1.0 mg/kg, CD1 mice plasma, 24 h
[3] = ip, 10 mg/kg, IP 10 mg/kg, CD1 mice plasma, read-out: Conc. (ng/mL) Mouse 1
[4] = ip, 10 mg/kg, IP 10 mg/kg, CD1 mice plasma, read-out: Conc. (ng/mL) Mouse 2
[5] = ip, 10 mg/kg, IP 10 mg/kg, CD1 mice plasma, read-out: Conc. (ng/mL) Mouse 3
[6] = ip, 10 mg/kg, IP 10 mg/kg, CD1 mice plasma, read-out: Mean
[7] = iv, 1 mg/kg, IV 1.0 mg/kg, CD1 mice plasma, read-out: Conc. (ng/mL) Mouse 1
[8] = iv, 1 mg/kg, IV 1.0 mg/kg, CD1 mice plasma, read-out: Conc. (ng/mL) Mouse 2
[9] = iv, 1 mg/kg, IV 1.0 mg/kg, CD1 mice plasma, read-out: Conc. (ng/mL) Mouse 3
[10] = iv, 1 mg/kg, IV 1.0 mg/kg, CD1 mice plasma, read-out: Mean

Cc1ncsc1-c1ccc(CNC(=O)[C@@H]2C[C@@H](O)CN2C(=O)[C@@H](NC(=O)CCOCCCOc2ccc(Nc3ncc(C(F)(F)F)c(NCc4cccc(N(C)S(C)(=O)=O)c4)n3)cc2)C(C)(C)C)cc1 [Compound 103, (2S,4R)-1-((S)-3,3-dimethyl-2-(3-(3-(4-((4-((3-(N-methylmethylsulfonamido)benzyl)amino)-5-(trifluoromethyl)pyrimidin-2-yl)amino)phenoxy)propoxy)propanamido)butanoyl)-4-hydroxy-N-(4-(4-methylthiazol-5-yl)benzyl)pyrrolidine-2-carboxamide]
Conc. (ng/mL) Mouse 2 ([1]; IP 10 mg/kg, CD1 mice plasma, 24 h): BLOQ | Conc. (ng/mL) Mouse 1 [1, 2]: BLOQ | Conc. (ng/mL) Mouse 2 [1, 2]: BLOQ | Conc. (ng/mL) Mouse 3 [1, 2]: BLOQ | concentration at 0.25 h [1, 3]: 877 ng/mL | concentration at 0.25 h [1, 4]: 494 ng/mL | concentration at 0.25 h [1, 5]: 562 ng/mL | concentration at 0.25 h [1, 6]: 645 ng/mL | concentration at 0.5 h [1, 3]: 842 ng/mL | concentration at 0.5 h [1, 4]: 639 ng/mL | concentration at 0.5 h [1, 5]: 608 ng/mL | concentration at 0.5 h [1, 6]: 696 ng/mL | concentration at 1 h [1, 3]: 2010 ng/mL | concentration at 1 h [1, 4]: 2460 ng/mL | concentration at 1 h [1, 5]: 1230 ng/mL | concentration at 1 h [1, 6]: 1900 ng/mL | concentration at 2 h [1, 3]: 2130 ng/mL | concentration at 2 h [1, 4]: 3300 ng/mL | concentration at 2 h [1, 5]: 826 ng/mL | concentration at 2 h [1, 6]: 2090 ng/mL | concentration at 4 h [1, 3]: 1260 ng/mL | concentration at 4 h [1, 4]: 1210 ng/mL | concentration at 4 h [1, 5]: 768 ng/mL | concentration at 4 h [1, 6]: 1080 ng/mL | concentration at 8 h [1, 3]: 321 ng/mL | concentration at 8 h [1, 4]: 68.5 ng/mL | concentration at 8 h [1, 5]: 306 ng/mL | concentration at 8 h [1, 6]: 232 ng/mL | concentration at 24 h ([1]; ip, 10 mg/kg, IP 10 mg/kg, CD1 mice plasma, 24 h, read-out: Conc. (ng/mL) Mouse 1): 0.824 ng/mL | concentration at 24 h ([1]; ip, 10 mg/kg, IP 10 mg/kg, CD1 mice plasma, 24 h, read-out: Conc. (ng/mL) Mouse 3): 4.5 ng/mL | concentration at 24 h ([1]; ip, 10 mg/kg, IP 10 mg/kg, CD1 mice plasma, 24 h, read-out: Mean): 2.66 ng/mL | AUC(0-t) ([1]; ip, 10 mg/kg, read-out: AUClast (h * ng/mL) IP): 10400 ng·h/mL | half-life ([1]; ip, 10 mg/kg, read-out: T ½ (h) IP (converted)): 1.87 h | concentration at 0.033 h [1, 7]: 4370 ng/mL | concentration at 0.033 h [1, 8]: 3940 ng/mL | concentration at 0.033 h [1, 9]: 4020 ng/mL | concentration at 0.033 h [1, 10]: 4110 ng/mL | concentration at 0.083 h [1, 7]: 1660 ng/mL | concentration at 0.083 h [1, 8]: 1730 ng/mL | concentration at 0.083 h [1, 9]: 1820 ng/mL | concentration at 0.083 h [1, 10]: 1740 ng/mL | concentration at 0.25 h [1, 7]: 376 ng/mL | concentration at 0.25 h [1, 8]: 382 ng/mL | concentration at 0.25 h [1, 9]: 395 ng/mL | concentration at 0.25 h [1, 10]: 384 ng/mL | concentration at 0.5 h [1, 7]: 140 ng/mL | concentration at 0.5 h [1, 8]: 132 ng/mL | concentration at 0.5 h [1, 9]: 135 ng/mL | concentration at 0.5 h [1, 10]: 136 ng/mL | concentration at 1 h [1, 7]: 52.1 ng/mL | concentration at 1 h [1, 8]: 58.8 ng/mL | concentration at 1 h [1, 9]: 57.5 ng/mL | concentration at 1 h [1, 10]: 56.2 ng/mL | concentration at 2 h [1, 7]: 36.1 ng/mL | concentration at 2 h [1, 8]: 27.7 ng/mL | concentration at 2 h [1, 9]: 32.1 ng/mL | concentration at 2 h [1, 10]: 32 ng/mL | concentration at 4 h [1, 7]: 10.8 ng/mL | concentration at 4 h [1, 8]: 12.9 ng/mL | concentration at 4 h [1, 9]: 13 ng/mL | concentration at 4 h [1, 10]: 12.3 ng/mL | concentration at 8 h [1, 7]: 2.33 ng/mL | concentration at 8 h [1, 8]: 8.35 ng/mL | concentration at 8 h [1, 9]: 4.11 ng/mL | concentration at 8 h [1, 10]: 4.93 ng/mL | AUC(0-t) ([1]; iv, 1 mg/kg, read-out: AUClast (h * ng/mL) IV): 747 ng·h/mL | half-life ([1]; iv, 1 mg/kg, read-out: T ½ (h) IV (converted)): 2.44 h | fraction unbound (PPB): 0.0022
